Test results as given in patent US20230391845A1, “GLP-1, GIP AND GLUCAGON RECEPTOR TRIPLE AGONISTS” (priority 2020, published 2023).
*1 amine or outer side, *2 acyl side, *3 side chain or, on linkers, in order; H or OH if unused. Where a SMILES comes first, the peptide text is derived from it. Side-chain parts run from the residue outwards. [ ]: non-standard residue; d: D form. The star is where a group is joined. C20 diacid = O=C(O)CCCCCCCCCCCCCCCCCCC(=O)*; C18 diacid = O=C(O)CCCCCCCCCCCCCCCCC(=O)*; γGlu = O=C(O)[C@H](CCC(=O)[*:2])N[*:1]; εLys = N[C@@H](CCCCN[*:1])C(=O)[*:2]; Palmitoyl = CCCCCCCCCCCCCCCC(=O)*; Aib = CC(C)(N)C(=O)O

target: T1, human GIP receptor (Homo sapiens, UniProt P48546); assay: In vitro functional potency (CRE luciferase; whole cells), human GIPR; format: cell-based; details: BHK CRE luc2P hGIPR whole cells; Table 1, position of substituent varied; read-out: hGIPR CRE Luc EC50
T1 construct: expressed in transfected cells; host or cells: BHK cells (parent line BHKTS13) containing CRE luciferase
T1 sequence (P48546 22-466): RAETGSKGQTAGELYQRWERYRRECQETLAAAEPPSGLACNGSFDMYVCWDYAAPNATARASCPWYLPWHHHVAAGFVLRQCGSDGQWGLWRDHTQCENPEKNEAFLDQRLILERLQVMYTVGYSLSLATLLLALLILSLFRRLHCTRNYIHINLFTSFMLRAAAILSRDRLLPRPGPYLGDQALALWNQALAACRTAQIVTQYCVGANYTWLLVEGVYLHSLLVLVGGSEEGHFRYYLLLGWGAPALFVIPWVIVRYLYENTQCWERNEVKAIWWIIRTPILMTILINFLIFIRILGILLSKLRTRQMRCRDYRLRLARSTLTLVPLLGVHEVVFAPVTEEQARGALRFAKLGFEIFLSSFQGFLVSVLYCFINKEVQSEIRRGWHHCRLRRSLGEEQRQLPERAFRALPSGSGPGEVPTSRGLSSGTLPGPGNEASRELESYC
Experimental: The purpose of this example is to test the functional activity, or potency, of the compounds in vitro at the human and mouse GLP-1, GIP, and Gcg receptors. The in vitro functional potency is the measure of target receptor activation in a whole cell assay.
In vitro functional potency was determined by measuring the response of the target receptor in a reporter gene assay in individual cell lines. The assay was performed in stably transfected BHK cell lines that expresses one of the following G-protein coupled receptors: human GLP-1 receptor, human GIP receptor, human Gcg receptor, mouse GLP-1 receptor, mouse GIP receptor, or mouse Gcg receptor; and where each cell line contains the DNA for the cAMP response element (CRE) coupled to a promoter and the gene for firefly luciferase (CRE luciferase). When the respective receptor is activated, it results in the production of cAMP, which in turn results in expression of the luciferase protein. When assay incubation is completed, luciferase substrate (luciferin) is added resulting in the enzymatic conversion of luciferin to oxyluciferin and producing bioluminescence. The luminescence is measured as the readout for the assay.
The cells lines used in these assays were BHK cells with BHKTS13 as a parent cell line. The cell lines were derived from a clone containing the CRE luciferase element and were established by further transfection with the respective receptor to obtain the relevant cell line.
The cells were cultured at 37° C. with 5% CO2 in Cell Culture Medium. They were aliquoted and stored in liquid nitrogen. The cells were kept in continuous culture and were seeded out the day before each assay.
GLP-1R and GcgR Cell Culture Medium consisted of DMEM medium with 10% FBS, 500 µg/mL G418, and 300 µg/mL hygromycin. GIPR Cell Culture Medium consisted of DMEM medium with 10% FBS, 400 µg/mL G418, and 300 µg/mL hygromycin. Assay Buffer consisted of DMEM w/o phenol red, 10 mM Hepes, 1× Glutamax, 1% ovalbumin, and 0.1% Pluronic F-68.
• 1) Cells were plated at 5000 cells/well and incubated overnight in the assay plate. • 2) Cells were washed once in DPBS. • 3) Stocks of the test compounds and reference compounds in concentrations ranging from 100-300 pM were diluted 1:150 in Assay Buffer.
The data from the microtiter plate reader was first regressed in an Excel in order to calculate the x-axis, log scale concentrations based on the individual test compound's stock concentration and the dilutions of the assay. […] The software performs a non-linear regression (log(agonist) vs response). A minimum of two replicates was measured for each sample. The reported values are averages of the replicates.

| SMILES | EC50 [pM] |
| --- | --- |
| CCCCCCCCCCCCCCCC(=O)NCCCC[C@H](NC(=O)[C@H](CO)NC(=O)[C@@H]1CCCN1C(=O)[C@@H]1CCCN1C(=O)[C@@H]1CCCN1C(=O)[C@H](C)NC(=O)CNC(=O)[C@H](CO)NC(=O)[C@H](CO)NC(=O)[C@@H]1CCCN1C(=O)CNC(=O)CNC(=O)[C@H](C)NC(=O)[C@H](CC(C)C)NC(=O)[C@H](CC(C)C)NC(=O)[C@H](Cc1c[nH]c2ccccc12)NC(=O)[C@H](CC(N)=O)NC(=O)[C@@H](NC(=O)[C@H](Cc1ccccc1)NC(=O)[C@H](CCC(=O)O)NC(=O)C(C)(C)NC(=O)[C@H](C)NC(=O)[C@H](C)NC(=O)[C@H](CCC(N)=O)NC(=O)[C@H](CCCCN)NC(=O)[C@H](CC(=O)O)NC(=O)[C@H](CC(C)C)NC(=O)[C@H](Cc1ccc(O)cc1)NC(=O)[C@@H](NC(=O)[C@H](CO)NC(=O)[C@H](Cc1ccc(O)cc1)NC(=O)[C@H](CC(=O)O)NC(=O)[C@H](CO)NC(=O)[C@@H](NC(=O)[C@H](Cc1ccccc1)NC(=O)[C@@H](NC(=O)CNC(=O)[C@H](CCC(N)=O)NC(=O)C(C)(C)NC(=O)[C@@H](N)Cc1ccc(O)cc1)[C@@H](C)O)[C@@H](C)O)[C@@H](C)CC)C(C)C)C(N)=O [Compound No. 58, reference compound] (H-Y[Aib]QGTFTSDYSIYLDKQAA[Aib]EFVNWLLAGGPSSGAPPPSK(Palmitoyl)-NH2; N-terminus assumed) | 7.2 |

same assay, conditions: BHK CRE luc2P hGIPR whole cells; Table 2; read-out: hGIPR CRE Luc EC50

| SMILES | EC50 [pM] |
| --- | --- |
| CC[C@H](C)[C@H](NC(=O)[C@H](CO)NC(=O)[C@H](Cc1ccc(O)cc1)NC(=O)[C@H](CC(=O)O)NC(=O)[C@H](CO)NC(=O)[C@@H](NC(=O)[C@H](Cc1ccccc1)NC(=O)[C@@H](NC(=O)CNC(=O)[C@H](Cc1c[nH]cn1)NC(=O)C(C)(C)NC(=O)[C@@H](N)Cc1c[nH]cn1)[C@@H](C)O)[C@@H](C)O)C(=O)N[C@@H](Cc1ccc(O)cc1)C(=O)N[C@@H](CC(C)C)C(=O)N[C@@H](CC(=O)O)C(=O)N[C@@H](CCCCNC(=O)[C@@H](N)CCCCNC(=O)[C@@H](N)CCCCNC(=O)CC[C@H](NC(=O)CCCCCCCCCCCCCCCCCCC(=O)O)C(=O)O)C(=O)N[C@@H](CCC(N)=O)C(=O)N[C@@H](C)C(=O)N[C@@H](C)C(=O)NC(C)(C)C(=O)N[C@@H](CCC(=O)O)C(=O)N[C@@H](Cc1ccccc1)C(=O)N[C@H](C(=O)N[C@@H](CCC(N)=O)C(=O)N[C@@H](Cc1c[nH]c2ccccc12)C(=O)N[C@@H](CC(C)C)C(=O)N[C@@H](CC(C)C)C(=O)N[C@@H](CCC(=O)O)C(=O)NCC(=O)NCC(=O)N1CCC[C@H]1C(=O)N[C@@H](CO)C(=O)N[C@@H](CO)C(=O)NCC(=O)N[C@@H](C)C(=O)N1CCC[C@H]1C(=O)N1CCC[C@H]1C(=O)N1CCC[C@H]1C(=O)N[C@@H](CO)C(N)=O)C(C)C [Compound No. 28] (H-H[Aib]HGTFTSDYSIYLDK([εLys-εLys-γGlu-C20 diacid])QAA[Aib]EFVQWLLEGGPSSGAPPPS-NH2) | 7.7 |
| CC(C)C[C@H](NC(=O)[C@H](CC(C)C)NC(=O)[C@H](Cc1c[nH]c2ccccc12)NC(=O)[C@H](CCC(N)=O)NC(=O)[C@@H](NC(=O)[C@H](Cc1ccccc1)NC(=O)[C@H](CCC(=O)O)NC(=O)C(C)(C)NC(=O)[C@H](C)NC(=O)[C@H](Cc1ccc(O)cc1)NC(=O)[C@H](CCC(N)=O)NC(=O)[C@H](CCCCNC(=O)[C@@H](N)CCCCNC(=O)[C@@H](N)CCCCNC(=O)CC[C@H](NC(=O)CCCCCCCCCCCCCCCCCCC(=O)O)C(=O)O)NC(=O)[C@H](CCC(=O)O)NC(=O)[C@H](CC(C)C)NC(=O)[C@H](Cc1ccc(O)cc1)NC(=O)[C@H](Cc1ccc(O)cc1)NC(=O)[C@H](CO)NC(=O)[C@H](Cc1ccc(O)cc1)NC(=O)[C@H](CC(=O)O)NC(=O)[C@H](CO)NC(=O)[C@@H](NC(=O)[C@H](Cc1ccccc1)NC(=O)[C@@H](NC(=O)CNC(=O)[C@H](Cc1c[nH]cn1)NC(=O)C(C)(C)NC(=O)[C@@H](N)Cc1c[nH]cn1)[C@@H](C)O)[C@@H](C)O)C(C)C)C(=O)N[C@@H](CCC(=O)O)C(=O)NCC(=O)NCC(=O)N1CCC[C@H]1C(=O)N[C@@H](CO)C(=O)N[C@@H](CO)C(=O)NCC(=O)N[C@@H](C)C(=O)N1CCC[C@H]1C(=O)N1CCC[C@H]1C(=O)N1CCC[C@H]1C(=O)N[C@@H](CO)C(N)=O [Compound No. 29] (H-H[Aib]HGTFTSDYSYYLEK([εLys-εLys-γGlu-C20 diacid])QYA[Aib]EFVQWLLEGGPSSGAPPPS-NH2) | 7.2 |
| CC[C@H](C)[C@H](NC(=O)[C@H](CO)NC(=O)[C@H](Cc1ccc(O)cc1)NC(=O)[C@H](CC(=O)O)NC(=O)[C@H](CO)NC(=O)[C@@H](NC(=O)[C@H](Cc1ccccc1)NC(=O)[C@@H](NC(=O)CNC(=O)[C@H](Cc1c[nH]cn1)NC(=O)C(C)(C)NC(=O)[C@@H](N)Cc1ccc(O)cc1)[C@@H](C)O)[C@@H](C)O)C(=O)N[C@@H](Cc1ccc(O)cc1)C(=O)N[C@@H](CC(C)C)C(=O)N[C@@H](CCC(=O)O)C(=O)N[C@@H](CCCCNC(=O)[C@@H](N)CCCCNC(=O)[C@@H](N)CCCCNC(=O)CC[C@H](NC(=O)CCCCCCCCCCCCCCCCCCC(=O)O)C(=O)O)C(=O)N[C@@H](CCC(N)=O)C(=O)N[C@@H](C)C(=O)N[C@@H](C)C(=O)NC(C)(C)C(=O)N[C@@H](CCC(=O)O)C(=O)N[C@@H](Cc1ccccc1)C(=O)N[C@H](C(=O)N[C@@H](CCC(N)=O)C(=O)N[C@@H](Cc1c[nH]c2ccccc12)C(=O)N[C@@H](CC(C)C)C(=O)N[C@@H](CC(C)C)C(=O)N[C@@H](CCC(=O)O)C(=O)NCC(=O)NCC(=O)N1CCC[C@H]1C(=O)N[C@@H](CO)C(=O)N[C@@H](CO)C(=O)NCC(=O)N[C@@H](C)C(=O)N1CCC[C@H]1C(=O)N1CCC[C@H]1C(=O)N1CCC[C@H]1C(=O)N[C@@H](CO)C(N)=O)C(C)C [Compound No. 18] (H-Y[Aib]HGTFTSDYSIYLEK([εLys-εLys-γGlu-C20 diacid])QAA[Aib]EFVQWLLEGGPSSGAPPPS-NH2) | 7.1 |
| CC[C@H](C)[C@H](NC(=O)[C@H](CO)NC(=O)[C@H](Cc1ccc(O)cc1)NC(=O)[C@H](CC(=O)O)NC(=O)[C@H](CO)NC(=O)[C@@H](NC(=O)[C@H](Cc1ccccc1)NC(=O)[C@@H](NC(=O)CNC(=O)[C@H](Cc1c[nH]cn1)NC(=O)C(C)(C)NC(=O)[C@@H](N)Cc1c[nH]cn1)[C@@H](C)O)[C@@H](C)O)C(=O)N[C@@H](CC(C)C)C(=O)N[C@@H](CC(C)C)C(=O)N[C@@H](CCC(=O)O)C(=O)N[C@@H](CCCCNC(=O)[C@@H](N)CCCCNC(=O)[C@@H](N)CCCCNC(=O)CC[C@H](NC(=O)CCCCCCCCCCCCCCCCC(=O)O)C(=O)O)C(=O)N[C@@H](CCC(N)=O)C(=O)N[C@@H](C)C(=O)N[C@@H](C)C(=O)N[C@@H](CCC(=O)O)C(=O)N[C@@H](CCC(=O)O)C(=O)N[C@@H](Cc1ccccc1)C(=O)N[C@H](C(=O)N[C@@H](CCC(N)=O)C(=O)N[C@@H](Cc1c[nH]c2ccccc12)C(=O)N[C@@H](CC(C)C)C(=O)N[C@@H](CC(C)C)C(=O)N[C@@H](CCC(=O)O)C(=O)NCC(=O)NCC(=O)N1CCC[C@H]1C(=O)N[C@@H](CO)C(=O)N[C@@H](CO)C(=O)NCC(=O)N[C@@H](C)C(=O)N1CCC[C@H]1C(=O)N1CCC[C@H]1C(=O)N1CCC[C@H]1C(=O)N[C@@H](CO)C(=O)O)C(C)C [Compound No. 51] (H-H[Aib]HGTFTSDYSILLEK([εLys-εLys-γGlu-C18 diacid])QAAEEFVQWLLEGGPSSGAPPPS-OH) | 1.8 |
| CC[C@H](C)[C@H](NC(=O)[C@H](CO)NC(=O)[C@H](Cc1ccc(O)cc1)NC(=O)[C@H](CC(=O)O)NC(=O)[C@H](CO)NC(=O)[C@@H](NC(=O)[C@H](Cc1ccccc1)NC(=O)[C@@H](NC(=O)CNC(=O)[C@H](Cc1c[nH]cn1)NC(=O)C(C)(C)NC(=O)[C@@H](N)Cc1c[nH]cn1)[C@@H](C)O)[C@@H](C)O)C(=O)N[C@@H](CC(C)C)C(=O)N[C@@H](CC(C)C)C(=O)N[C@@H](CCC(=O)O)C(=O)N[C@@H](CCCCNC(=O)[C@@H](N)CCCCNC(=O)[C@@H](N)CCCCNC(=O)CC[C@H](NC(=O)CCCCCCCCCCCCCCCCCCC(=O)O)C(=O)O)C(=O)N[C@@H](CCC(N)=O)C(=O)N[C@@H](C)C(=O)N[C@@H](C)C(=O)N[C@@H](CCC(=O)O)C(=O)N[C@@H](CCC(=O)O)C(=O)N[C@@H](Cc1ccccc1)C(=O)N[C@H](C(=O)N[C@@H](CCC(N)=O)C(=O)N[C@@H](Cc1c[nH]c2ccccc12)C(=O)N[C@@H](CC(C)C)C(=O)N[C@@H](CC(C)C)C(=O)N[C@@H](CCC(=O)O)C(=O)NCC(=O)NCC(=O)N1CCC[C@H]1C(=O)N[C@@H](CO)C(=O)N[C@@H](CO)C(=O)NCC(=O)N[C@@H](C)C(=O)N1CCC[C@H]1C(=O)N1CCC[C@H]1C(=O)N1CCC[C@H]1C(=O)N[C@@H](CO)C(=O)O)C(C)C [Compound No. 50] (H-H[Aib]HGTFTSDYSILLEK([εLys-εLys-γGlu-C20 diacid])QAAEEFVQWLLEGGPSSGAPPPS-OH) | 1.9 |
